Laboratory results reported in patent US10940139B2, “Compounds that interact with the Ras superfamily for the treatment of cancers, inflammatory diseases, rasopathies, and fibrotic disease” (Shy Therapeutics LLC, priority 2017, dated 2021).

These molecules were tested against KRas G12D/Q61H double mutant (Homo sapiens (Human), UniProt P01116, G12D/Q61H) (assay: Ras GTP binding domain inhibition assay (labeled GTP)). Details: 20 μM.
In short: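 Ni-plate capture of His-KRas (3-10 μg/ml, o/n, 4° C); Tris pH 7.5/MgCl2/DTT buffer, 1% DMSO. Cpd 20 μM or titration, 3 h RT. Cy3/Cy5-GTP 45 min RT, wash, fluorescence of bound GTP.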

Sequence of KRas G12D/Q61H double mutant (P01116-2 other isoform, or with tags, fused parts or gaps G12D/Q61H): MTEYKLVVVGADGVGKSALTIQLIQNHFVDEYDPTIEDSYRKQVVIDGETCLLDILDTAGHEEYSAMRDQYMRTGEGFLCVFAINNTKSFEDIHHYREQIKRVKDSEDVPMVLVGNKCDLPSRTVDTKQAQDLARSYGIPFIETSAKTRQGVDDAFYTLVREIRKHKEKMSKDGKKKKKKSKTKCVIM

| Structure (SMILES) | KRas G12D Q61H % Inh. |
| --- | --- |
| O=C(COc1ccc(F)cc1F)Nc1nnc(-c2ccccn2)[nH]1 [drawing 2459] | C (C = 51-75% inhibition) |

Same assay, conditions: 20 μM compound; KRas G12D/Q61H double mutant; read-out: % Inhibition at 20 μM of K-Ras mutant and wild-type protein, KRas G12D Q61H

| Structure (SMILES) | inhibition at 20 µM |
| --- | --- |
| CCN1CCN(Cc2ccc(NC(=O)c3cc(OC)c(OC)cc3OC)cc2)CC1 | 1 to 25% |
| O=C(C1CCN(c2ccccc2[N+](=O)[O-])CC1)N1CCCC1C1CCCCC1 (stereo not drawn) | 1 to 25% |
| OCC1(Cc2ccccc2)CCCN1c1nc(-c2ccccn2)nc2c1CCC2 (stereo not drawn) | 25 to 50% |
| COC(=O)c1c(NC(=O)Cc2cc(OC)c(OC)c(OC)c2)sc2c1CCCCC2 | 25 to 50% |
| Cc1ccccc1N(CC(=O)NCC1CCCCCC1)S(C)(=O)=O | 1 to 25% |
| NC(=O)C1CCCN1Cc1cccc(NC(=O)c2ccccc2OCCOc2ccccc2)c1 (stereo not drawn) | 25 to 50% |
| Cc1cc(C)c(C)c(S(=O)(=O)N2CCN(C(C)C(=O)NCc3ccc4c(c3)OCO4)CC2)c1C (stereo not drawn) | 1 to 25% |
| CC[S+]([O-])c1ccccc1C(=O)OCc1ccc(-c2ccccc2C#N)cc1 (stereo not drawn) | 25 to 50% |
| COCCCOC1(CSc2nnc(COc3cc(C)ccc3C)o2)CCCC1 | 25 to 50% |
| COc1ccc(-c2csc3nc(C)nc(N(C)Cc4ccco4)c23)cc1OC | 25 to 50% |
| CCN(CC)S(=O)(=O)c1ccc(C(C)NCc2ccc(Cl)s2)cc1 (stereo not drawn) | 25 to 50% |
| O=[N+]([O-])c1ccc(O)c2ncccc12 | 25 to 50% |
| COC(=O)c1ccc(CCSc2nnc(COc3cccc(C)c3)o2)cc1 | 25 to 50% |
| O=C(CCOCc1ccccc1)Nc1nnc(-c2ccccn2)[nH]1 | 51 to 75% |
| C=CCc1cc(OCC)ccc1OCC(=O)NCc1ccc(OC)cc1 | 25 to 50% |
| O=C(CCCOc1ccc(Cl)cc1Cl)N1N=CCC1(O)C(F)(F)F (stereo not drawn) | 25 to 50% |
| CCc1nc2ccc(C(=O)Nc3ccccc3C(=O)N3CC(C)OC(C)C3)cc2nc1CC (stereo not drawn) | 25 to 50% |
| Clc1ccccc1SCCCSc1nnc(N2CCCC2)s1 | 25 to 50% |
| CCN(C(=O)c1cccc(-n2cccn2)c1)c1ccc(C#N)c(Cl)c1 | 1 to 25% |
| CCOC(=O)c1ccc2c(c1)nc(C1CCN(S(=O)(=O)c3cccs3)CC1)n2CC | 25 to 50% |
| Cc1ccc(OCc2ccc(C(=O)N(CCC#N)CC3CCC3)o2)c(C)c1 | 51 to 75% |
| CCOC(=O)c1ccc2c(c1)n(Cc1occc1C(=O)OC)c(=O)n2CC | 1 to 25% |
| FC(F)(F)C1CCCN(Cc2ccccc2CN2CCCC(C(F)(F)F)C2)C1 (stereo not drawn) | 25 to 50% |
| Cc1ccccc1OCCN(C)c1ccc([N+](=O)[O-])c(OC(F)F)c1 | 25 to 50% |
| Cc1cc(C(=O)COC(=O)c2ccccc2[S+](C)[O-])c(C)n1CCC1=CCCCC1 (stereo not drawn) | 1 to 25% |
| CCN(c1ncc(C(=O)OC)s1)S(=O)(=O)c1ccc(C)c(C)c1 | 51 to 75% |
| CC(C)(CNc1ccc(S(=O)(=O)N(Cc2ccccc2)Cc2ccccc2)cn1)N1CCOCC1 | 25 to 50% |

Same assay, conditions: 20 μM compound; read-out: % Inhibition at 20 μM KRas G12D Q61H

| Structure (SMILES) | inhibition at 20 µM |
| --- | --- |
| CS(=O)(=O)c1cccc(C(=O)N2CCCc3c(O)nc(-c4ccccn4)nc32)c1 [drawing 2647] | 51 to 75% |
| Oc1nc(-c2ccccn2)nc2c(C3CCNCC3)csc12 [drawing 2711] | 51 to 75% |
| CN(Cc1ccc(C(F)(F)F)cc1)Cc1cc([N+](=O)[O-])cc2c1OCOC2 | 1 to 25% |
| COC(=O)CCN(Cc1ccc(F)c(F)c1)c1nc(C(F)(F)F)ccc1C#N | 25 to 50% |
| CCN(CC)S(=O)(=O)c1ccc(N2CCOCC2)c(C(=O)NCCCn2cnc3ccccc32)c1 | 1 to 25% |
| N#Cc1ccc(N2CCCC2c2ccco2)cc1C(F)(F)F (stereo not drawn) | 1 to 25% |
| Cc1ccc(NC(=O)c2sc3nc(-c4ncccn4)[nH]c(=O)c3c2C)c(C)c1 | 1 to 25% |
| OC1CCC(Nc2nc(-c3ccccn3)nc3scc(-c4ccccc4)c23)CC1 (stereo not drawn) | 25 to 50% |
| CCN(CC)CCC(C)Nc1nc(-c2ccccn2)nc2sccc12 (stereo not drawn) [drawing 2706] | 25 to 50% |
| O=C(Nc1nc(-c2ccccn2)cs1)c1ccc(=O)n(Cc2ccccc2)n1 | 25 to 50% |
| CN(Cc1ccc(Br)cc1)Cc1ccc(C(=O)NCC(F)(F)F)cc1 | 1 to 25% |
| N#Cc1ccccc1CN1CCN(c2cccc(C(F)(F)F)c2)CC1 | 1 to 25% |
| COc1ccc2c(c1)CCCN2C(=O)CN(Cc1ccco1)S(=O)(=O)c1ccc(C)cc1 | 25 to 50% |
| CC(C)N1C(=O)CC(Nc2cc(C(F)(F)F)nc(-c3ccccn3)n2)C1=O (stereo not drawn) | 1 to 25% |
| O=C(Cc1ccc2c(c1)CCCC2)Nc1nnc(-c2ccccn2)[nH]1 | 25 to 50% |
| Cc1noc(C)c1CNc1ccccc1Cc1ccccc1 | 25 to 50% |
| Cc1ccc(S(=O)(=O)Nc2ccc(OS(=O)(=O)N(C)Cc3ccccc3)cc2)cc1 | 25 to 50% |
| Cc1nc(CC(=O)Nc2nnc(-c3ccccn3)[nH]2)cs1 | 25 to 50% |
| O=C(c1csc2c(O)nc(-c3ccccn3)nc12)N1CCOC(c2cccc(O)c2)C1 (stereo not drawn) | 51 to 75% |
| COc1ccccc1CN(Cc1cccs1)C(=O)c1ccc(C#N)cc1 | 25 to 50% |
| Nc1nc(-c2ccccn2)nc2sccc12 [drawing 2821] | 25 to 50% |
| CCOC(=O)c1sc(N(C2CC2)S(=O)(=O)c2ccc(OC)c(C)c2)nc1C | 1 to 25% |
| Cc1cccc(OC2CCN(c3nc(-c4ccccn4)nc4c3CCC4)CC2)n1 | 1 to 25% |

| Structure (SMILES) | inhibition at 20 µM |
| --- | --- |
| COc1ccc(-c2csc(C3CC3)n2)cc1Cl | 25 to 50% |
| COc1ccccc1-c1nnc(CNc2ccc(Cl)cc2Cl)o1 | 1 to 25% |
| O=c1[nH]c(-c2ccccn2)nc2ccc(F)cc12 | 25 to 50% |
| O=C(c1cc(-c2ccccc2)nn1-c1ccccc1)N(Cc1nnc(-c2ccccc2Cl)o1)C1CC1 | 25 to 50% |
| CNC(=O)CNc1nc(-c2ccccn2)nc2scc(-c3ccccc3)c12 | 25 to 50% |
| O=C(Nc1nnc(-c2ccccn2)[nH]1)c1ccc(Oc2ccccc2)cc1 | 25 to 50% |
| O=C(c1csc2c(O)nc(-c3ccccn3)nc12)N1CCN(c2ccc(O)cc2)CC1 | 25 to 50% |
| COc1ccc(S(=O)(=O)N2CCCCCC2)cc1C(=O)NCCc1ccccc1 | 25 to 50% |
| O=C(c1cnc(-c2ccccc2)s1)N1CCC(c2ccccc2)CC1 | 25 to 50% |
| O=C(NCCc1cccs1)c1cc(S(=O)(=O)N2CCCCC2)ccc1N1CCOCC1 | 1 to 25% |
| Cc1c(C(=O)N(c2ccccc2)C(C)C)cnn1-c1ccccn1 | 1 to 25% |
| Cc1nc(-c2ccccn2)nc(O)c1CCC(=O)NCc1ccccc1F | 25 to 50% |
| N#Cc1ccc(CC(=O)Nc2ccnc(-c3ccccn3)n2)cc1 [drawing 2700] | 25 to 50% |
| COCCCC(=O)N1CCCc2c(O)nc(-c3ccccn3)nc21 [drawing 2648] | 51 to 75% |
| Cc1nc(-c2ccccn2)nc(NC(C)CO)c1C (stereo not drawn) | 1 to 25% |
| CC1(C)NC(=O)N(CC(=O)Nc2nc(-c3ccccn3)cs2)C1=O | 1 to 25% |
| CCN(CC)S(=O)(=O)c1ccc(NCCOC)c(C(=O)NCCC(C)C)c1 | 1 to 25% |
| O=C(Nc1nnc(-c2ccccn2)[nH]1)c1ccc(NC2CC2)nc1 | 25 to 50% |
| COc1ccccc1CN(Cc1cccs1)C(=O)c1ccc(S(=O)(=O)N2CCOCC2)cc1 | 1 to 25% |
| O=C(Nc1nnc(-c2ccccn2)[nH]1)C1CCCN(c2ncccc2C(F)(F)F)C1 (stereo not drawn) | 51 to 75% |
| O=C(c1csc2c(O)nc(-c3ccccn3)nc12)N1CCC(N2CCOCC2)CC1 [drawing 2678] | 25 to 50% |
| O=C(c1cocn1)N1CCCc2c(O)nc(-c3ccccn3)nc21 [drawing 2649] | 25 to 50% |

Same assay, conditions: 20 μM; read-out: KRas G12D Q61H % Inh.

| Structure (SMILES) | inhibition at 20 µM |
| --- | --- |
| COC(=O)c1cncc(C(=O)Nc2nnc(-c3ccccn3)[nH]2)c1 [drawing 2529] | 51 to 75% |
| Cc1cccc(C)c1OCCOC(=O)c1ccccc1SCCOc1c(C)cccc1C [drawing 2636] | 51 to 75% |
| N#CCc1ccc(OCC(=O)Nc2nnc(-c3ccccn3)[nH]2)cc1 [drawing 2552] | 51 to 75% |
| O=C(Nc1nnc(-c2ccccn2)[nH]1)C1CCCN(C(=O)c2cccs2)C1 (stereo not drawn) | 51 to 75% |
| O=C(Nc1nnc(-c2ccccn2)[nH]1)c1cccc(NC(=O)C2CCCO2)c1 (stereo not drawn) [drawing 2498] | 51 to 75% |
| CCN(CC)S(=O)(=O)c1ccc(NCCOC)c(C(=O)NCCSCc2ccc(C)cc2)c1 [drawing 2633] | 25 to 50% |
| O=C(COCCOc1ccccc1)Nc1nnc(-c2ccccn2)[nH]1 [drawing 2564] | 76 to 100% |
| Cc1nc(-c2ccccn2)nc(O)c1CCC(=O)NCCc1cccs1 [drawing 2595] | 25 to 50% |
| COC(=O)C(C)CN(Cc1cc(Br)ccc1[N+](=O)[O-])C1CC1 (stereo not drawn) [drawing 2629] | 25 to 50% |
| O=C(Cc1ccc2c(c1)OCCO2)Nc1nnc(-c2ccccn2)[nH]1 [drawing 2551] | 51 to 75% |
| COC(=O)c1ccc(C(=O)NCC2(c3ccccc3OC)CCCC2)nc1 [drawing 2623] | 25 to 50% |
| O=C(Cn1c(=O)cnc2ccccc21)Nc1nc(-c2ccccn2)cs1 [drawing 2569] | 51 to 75% |
| CC(Oc1ccc(C(=O)Nc2nnc(-c3ccccn3)[nH]2)cn1)c1ccccc1 (stereo not drawn) [drawing 2512] | 51 to 75% |
| O=C(Nc1nnc(-c2ccccn2)[nH]1)C1CCCC(C(F)(F)F)C1 (stereo not drawn) [drawing 2518] | 51 to 75% |
| O=C(Cn1cnc2ccccc2c1=O)Nc1nc(-c2ccccn2)cs1 [drawing 2574] | 25 to 50% |
| O=C(Nc1nnc(-c2ccccn2)[nH]1)C1Cc2cc(Cl)ccc2O1 (stereo not drawn) [drawing 2548] | 51 to 75% |
| Cc1nc(-c2ccccn2)nc(O)c1CCC(=O)NCC1COc2ccccc2O1 (stereo not drawn) [drawing 2599] | 25 to 50% |

Same assay, conditions: at 20 μM; read-out: KRas G12D Q61H % Inh.

| Structure (SMILES) | inhibition at 20 µM |
| --- | --- |
| Cc1cc2nc(-c3ccccn3)nc(O)c2s1 [drawing 3791] | 51 to 75% |
| Oc1nc(-c2ccccn2)nc2c(-c3cnc4ccccc4c3)csc12 [drawing 3780] | 25 to 50% |

Same assay, conditions: serial dilution; read-out: KRas G12D Q61H (classes E-H, IC50)

| Structure (SMILES) | IC50 |
| --- | --- |
| CS(=O)(=O)c1cccc(C(=O)N2CCCc3c(O)nc(-c4ccccn4)nc32)c1 [drawing 2647] | 5 to 10 µM |
